{"source": "patent US20240218022A1", "about": "“ANTI-VISTA MACROCYCLIC PEPTIDES AND COMPOSITIONS” (BRISTOL-MYERS SQUIBB COMPANY, priority 2022, published 2024)", "target": "T1, mouse VISTA (mVISTA) (Mus musculus, UniProt Q9D659)", "T1 construct": "expressed in transfected cells; host or cells: Human embryonic kidney 293T cells", "T1 sequence (Q9D659 33-308)": "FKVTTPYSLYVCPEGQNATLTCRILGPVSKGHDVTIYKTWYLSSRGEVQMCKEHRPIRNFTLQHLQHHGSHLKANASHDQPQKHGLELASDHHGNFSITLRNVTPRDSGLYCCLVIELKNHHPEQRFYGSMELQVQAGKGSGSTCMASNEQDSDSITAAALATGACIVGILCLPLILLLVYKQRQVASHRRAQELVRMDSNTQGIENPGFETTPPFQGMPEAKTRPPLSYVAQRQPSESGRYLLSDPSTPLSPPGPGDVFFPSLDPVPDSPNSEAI", "assay": "Cell-Based Binding High-Content Assay For mVISTA (HC CBA mVISTA)", "conditions": "read-out: HC CBA mVISTA IC50", "in_short": "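Read-out: Alexa 647–streptavidin signal imaged on fixed, Hoechst-stained mVISTA-293T cells, with IC50 taken from a four-parameter logistic curve. Compounds competed with 2 nM biotinylated peptide for 30 min at room temperature, tested under both no-wash and wash (1 h compound, media exchange, 1 h) formats.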", "note": "Starred links: 1 amine or outer side, 2 acyl side, 3 side chain; linkers in the order of their positions; H or OH if unused. Positions of bridges follow the written chain, without caps; N, C: chain ends. Non-standard residues stand in square brackets, D forms with d. Residues, ends and D or L forms follow the SMILES beside them. ξ: configuration not given here. Phe(3-CF3) = N[C@@H](Cc1cccc(C(F)(F)F)c1)C(=O)O; X1 = C=CCOc1ccccc1C[C@H](N[*:1])C(=O)[*:2]; Phe(3-CN) = N#Cc1cccc(C[C@H](N)C(=O)O)c1; Phe(3-Cl) = N[C@@H](Cc1cccc(Cl)c1)C(=O)O; Phe(3-F) = N[C@@H](Cc1cccc(F)c1)C(=O)O; Phe(3-Me) = Cc1cccc(C[C@H](N)C(=O)O)c1; Ahp(2) = CCCCC[C@H](N)C(=O)O; NMeNle = CCCC[C@H](NC)C(=O)O; Tle = CC(C)(C)[C@H](N)C(=O)O; NHexGly = CCCCCCNCC(=O)O; Nle = CCCC[C@H](N)C(=O)O; Orn = NCCC[C@H](N)C(=O)O; ξD = NC(CC(=O)O)C(=O)O; ξS = NC(CO)C(=O)O", "data": [{"smiles": "CCCCCCN1CC(=O)N[C@@H](Cc2ccc(O)cc2)C(=O)N[C@@H](CC(C)C)C(=O)N[C@@H](CC(N)=O)C(=O)N[C@@H](CCCNC(=N)N)C(=O)N[C@@H](CC(C)C)C(=O)N[C@@H](CCCCC)C(=O)N2CCC[C@H]2C(=O)N[C@@H](C(C)C)C(=O)N[C@@H](C(C)C)C(=O)N[C@H](C(=O)NCC(=O)O)CSCC(=O)N[C@@H](Cc2ccccc2)C(=O)N[C@@H](Cc2cccc(C)c2)C(=O)N[C@@H](CC(=O)O)C1=O", "note": "[compound 1328] ({CH2CO}-F[Phe(3-Me)]D[NHexGly]YLNRL[Ahp(2)]PVVCG-OH; thioether N-14)", "values": [{"measurement": "IC50", "value": 2, "unit": "nM"}]}, {"smiles": "CCCCCCN1CC(=O)N[C@@H](Cc2ccc(O)cc2)C(=O)N[C@@H](CCCC)C(=O)N[C@@H](CC(N)=O)C(=O)N[C@@H](CCCNC(=N)N)C(=O)N[C@@H](CC(C)C)C(=O)N[C@@H](CCCCC)C(=O)N2CCC[C@H]2C(=O)N[C@@H](C(C)C)C(=O)N[C@@H](CC(=O)O)C(=O)N[C@H](C(=O)NCC(=O)O)CSCC(=O)N[C@@H](Cc2ccccc2)C(=O)N[C@@H](Cc2cccc(C)c2)C(=O)N[C@@H](CC(=O)O)C1=O", "note": "[compound 1329] ({CH2CO}-F[Phe(3-Me)]D[NHexGly]Y[Nle]NRL[Ahp(2)]PVDCG-OH; thioether N-14)", "values": [{"measurement": "IC50", "value": 4.5, "unit": "nM"}]}, {"smiles": "CCCCCCN1CC(=O)N[C@@H](Cc2ccc(O)cc2)C(=O)N[C@@H](CCCC)C(=O)N[C@@H](CC(=O)O)C(=O)N[C@@H](CCCNC(=N)N)C(=O)N[C@@H](CC(C)C)C(=O)N[C@@H](CCCCC)C(=O)N2CCC[C@H]2C(=O)N[C@@H](C(C)C)C(=O)N[C@@H](CC(=O)O)C(=O)N[C@H](C(=O)NC(CO)C(N)=O)CSCC(=O)N[C@@H](Cc2ccccc2)C(=O)N[C@@H](Cc2cccc(C)c2)C(=O)N[C@@H](CC(=O)O)C1=O", "note": "(stereo partly drawn) [compound 1330] ({CH2CO}-F[Phe(3-Me)]D[NHexGly]Y[Nle]DRL[Ahp(2)]PVDC[ξS]-NH2; thioether N-14)", "values": [{"measurement": "IC50", "value": 16.8, "unit": "nM"}]}, {"smiles": "CCCCCCN1CC(=O)N[C@@H](Cc2ccc(O)cc2)C(=O)N[C@@H](CCCC)C(=O)N[C@@H](CC(=O)O)C(=O)N[C@@H](CCCN)C(=O)N[C@@H](CC(C)C)C(=O)N[C@@H](CCCCC)C(=O)N2CCC[C@H]2C(=O)N[C@@H](C(C)C)C(=O)N[C@@H](CC(=O)O)C(=O)N[C@H](C(=O)NC(CO)C(N)=O)CSCC(=O)N[C@@H](Cc2ccccc2)C(=O)N[C@@H](Cc2cccc(C)c2)C(=O)N[C@@H](CC(=O)O)C1=O", "note": "(stereo partly drawn) [compound 1331] ({CH2CO}-F[Phe(3-Me)]D[NHexGly]Y[Nle]D[Orn]L[Ahp(2)]PVDC[ξS]-NH2; thioether N-14)", "values": [{"measurement": "IC50", "value": 14.3, "unit": "nM"}]}, {"smiles": "CCCCCCN1CC(=O)N[C@@H](Cc2ccc(O)cc2)C(=O)N[C@@H](CCCC)C(=O)N[C@@H](CC(N)=O)C(=O)N[C@@H](CCCNC(=N)N)C(=O)N[C@@H](CC(C)C)C(=O)N[C@@H](CCCCC)C(=O)N2CCC[C@H]2C(=O)N[C@@H](C(C)C)C(=O)N[C@@H](CC(=O)O)C(=O)N[C@H](C(=O)NCC(=O)O)CSCC(=O)N[C@@H](Cc2ccccc2)C(=O)N[C@@H](Cc2cccc(C(F)(F)F)c2)C(=O)N[C@@H](CC(=O)O)C1=O", "note": "[compound 1332] ({CH2CO}-F[Phe(3-CF3)]D[NHexGly]Y[Nle]NRL[Ahp(2)]PVDCG-OH; thioether N-14)", "values": [{"measurement": "IC50", "value": 12.1, "unit": "nM"}]}, {"smiles": "CCCCCCN1CC(=O)N[C@@H](Cc2ccc(O)cc2)C(=O)N[C@@H](CC(C)C)C(=O)N[C@@H](CC(N)=O)C(=O)N[C@@H](CCCNC(=N)N)C(=O)N[C@@H](CC(C)C)C(=O)N[C@@H](CCCCC)C(=O)N2CCC[C@H]2C(=O)N[C@@H](C(C)C)C(=O)N[C@@H](C(C)C)C(=O)N[C@H](C(=O)NCC(=O)O)CSCC(=O)N[C@@H](Cc2ccccc2)C(=O)N[C@@H](Cc2cccc(C(F)(F)F)c2)C(=O)N[C@@H](CC(=O)O)C1=O", "note": "[compound 1333] ({CH2CO}-F[Phe(3-CF3)]D[NHexGly]YLNRL[Ahp(2)]PVVCG-OH; thioether N-14)", "values": [{"measurement": "IC50", "value": 27.6, "unit": "nM"}]}, {"smiles": "C=CCOc1ccccc1C[C@@H]1NC(=O)[C@H](Cc2ccccc2)NC(=O)CSC[C@@H](C(=O)NCC(N)=O)NC(=O)[C@H](CO)NC(=O)[C@H](C(C)(C)C)NC(=O)[C@@H]2CCCN2C(=O)[C@H](CCCCC)NC(=O)[C@H](CCCC)N(C)C(=O)[C@H](CCCNC(=N)N)NC(=O)[C@H](CC(N)=O)NC(=O)[C@H](CC(C)C)NC(=O)[C@H](Cc2ccc(O)cc2)NC(=O)CN(CCCCCC)C(=O)[C@H](CC(=O)O)NC1=O", "note": "[compound 1338] ({CH2CO}-F[X1]D[NHexGly]YLNR[NMeNle][Ahp(2)]P[Tle]SCG-NH2; thioether N-14)", "values": [{"measurement": "IC50", "value": 34.6, "unit": "nM"}]}, {"smiles": "CCCCCCN1CC(=O)N[C@@H](Cc2ccc(O)cc2)C(=O)N[C@@H](CC(C)C)C(=O)N[C@@H](CC(N)=O)C(=O)N[C@@H](CCCNC(=N)N)C(=O)N(C)[C@@H](CCCC)C(=O)N[C@@H](CCCCC)C(=O)N2CCC[C@H]2C(=O)N[C@@H](C(C)(C)C)C(=O)N[C@@H](CO)C(=O)N[C@H](C(=O)NCC(N)=O)CSCC(=O)N[C@@H](Cc2ccccc2)C(=O)N[C@@H](Cc2cccc(Cl)c2)C(=O)N[C@@H](CC(=O)O)C1=O", "note": "[compound 1339] ({CH2CO}-F[Phe(3-Cl)]D[NHexGly]YLNR[NMeNle][Ahp(2)]P[Tle]SCG-NH2; thioether N-14)", "values": [{"measurement": "IC50", "value": 31.6, "unit": "nM"}]}, {"smiles": "CCCCCCN1CC(=O)N[C@@H](Cc2ccc(O)cc2)C(=O)N[C@@H](CC(C)C)C(=O)N[C@@H](CC(N)=O)C(=O)N[C@@H](CCCNC(=N)N)C(=O)N(C)[C@@H](CCCC)C(=O)N[C@@H](CCCCC)C(=O)N2CCC[C@H]2C(=O)N[C@@H](C(C)(C)C)C(=O)N[C@@H](CO)C(=O)N[C@H](C(=O)NCC(N)=O)CSCC(=O)N[C@@H](Cc2ccccc2)C(=O)N[C@@H](Cc2cccc(C#N)c2)C(=O)N[C@@H](CC(=O)O)C1=O", "note": "[compound 1340] ({CH2CO}-F[Phe(3-CN)]D[NHexGly]YLNR[NMeNle][Ahp(2)]P[Tle]SCG-NH2; thioether N-14)", "values": [{"measurement": "IC50", "value": 36.8, "unit": "nM"}]}, {"smiles": "CCCCCCN1CC(=O)N[C@@H](Cc2ccc(O)cc2)C(=O)N[C@@H](CC(C)C)C(=O)N[C@@H](CC(N)=O)C(=O)N[C@@H](CCCNC(=N)N)C(=O)N(C)[C@@H](CCCC)C(=O)N[C@@H](CCCCC)C(=O)N2CCC[C@H]2C(=O)N[C@@H](C(C)(C)C)C(=O)N[C@@H](CO)C(=O)N[C@H](C(=O)NCC(N)=O)CSCC(=O)N[C@@H](Cc2ccccc2)C(=O)N[C@@H](Cc2cccc(F)c2)C(=O)N[C@@H](CC(=O)O)C1=O", "note": "[compound 1341] ({CH2CO}-F[Phe(3-F)]D[NHexGly]YLNR[NMeNle][Ahp(2)]P[Tle]SCG-NH2; thioether N-14)", "values": [{"measurement": "IC50", "value": 19.1, "unit": "nM"}]}, {"smiles": "CCCCCCN1CC(=O)N[C@@H](Cc2ccc(O)cc2)C(=O)N[C@@H](CCCC)C(=O)N[C@@H](CC(=O)O)C(=O)N[C@@H](CCCNC(=N)N)C(=O)N(C)[C@@H](CCCC)C(=O)N[C@@H](CCCCC)C(=O)N2CCC[C@H]2C(=O)N[C@@H](C(C)C)C(=O)N[C@@H](CC(=O)O)C(=O)N[C@H](C(=O)NC(CC(=O)O)C(N)=O)CSCC(=O)N[C@@H](Cc2ccccc2)C(=O)N[C@@H](Cc2cccc(C)c2)C(=O)N[C@@H](CC(=O)O)C1=O", "note": "(stereo partly drawn) [compound 1342] ({CH2CO}-F[Phe(3-Me)]D[NHexGly]Y[Nle]DR[NMeNle][Ahp(2)]PVDC[ξD]-NH2; thioether N-14)", "values": [{"measurement": "IC50", "value": 12.5, "unit": "nM"}]}, {"smiles": "CCCCCCN1CC(=O)N[C@@H](Cc2ccc(O)cc2)C(=O)N[C@@H](CCCC)C(=O)N[C@@H](CC(=O)O)C(=O)N[C@@H](CCCN)C(=O)N(C)[C@@H](CCCC)C(=O)N[C@@H](CCCCC)C(=O)N2CCC[C@H]2C(=O)N[C@@H](C(C)C)C(=O)N[C@@H](CC(=O)O)C(=O)N[C@H](C(=O)NC(CC(=O)O)C(N)=O)CSCC(=O)N[C@@H](Cc2ccccc2)C(=O)N[C@@H](Cc2cccc(C)c2)C(=O)N[C@@H](CC(=O)O)C1=O", "note": "(stereo partly drawn) [compound 1343] ({CH2CO}-F[Phe(3-Me)]D[NHexGly]Y[Nle]D[Orn][NMeNle][Ahp(2)]PVDC[ξD]-NH2; thioether N-14)", "values": [{"measurement": "IC50", "value": 17.8, "unit": "nM"}]}]}
